These results are taken from article PMC3663898 (Antiviral research, 2013).

SMILES strings stand for the structures. In brackets after ≈: the same amount, converted by molar mass. Like-named read-outs stand apart in the source and are kept apart here. Where only a bound is given, the exact number is not on record here.

Series [1] relates to TCRV. Description: microbe, parasite or virus in culture. Type of series: cell-based, Tacaribe virus (11573 strain). The conditions noted are these: Mammarenavirus tacaribeense, Huh7.5, 48 h; for EC50: read-out: TARV EC50; for EC90: read-out: TARV EC90.
In series [2] the test system is DENV. As to the kind of experiment: microbe, parasite or virus in culture. Type of series: cell-based, DENV (serotype 2, New Guinea C). As to conditions: Dengue virus, BHK, 48 h; for EC50: read-out: DENV EC50; for EC90: read-out: DENV EC90.
For series [3] the following is noted: male, Sprague-Dawley, rat, in vivo.
For series [4] the following is noted: rat, in vivo; for rats with diarrhea: Sprague-Dawley, po, 200 mg/kg.
A short description of series [5]: in vivo. As to conditions: male, Sprague-Dawley, rat; for C0 / clearance / Vd / half-life: iv.
Series [6] can be described thus: in vitro. The conditions noted are these: bovine.
The nature of series [7]: in vitro. The conditions noted are these: human.
Series [8] can be described thus: in vitro. As to conditions: hamster.
Series [9] concerns CYP1A2, CYP2C9, CYP2C19, CYP2D6 and CYP3A4. As to the kind of experiment: in vitro. As to conditions: human.
Series [10] in a line: physchem.
The nature of series [11]: in vitro. As to conditions: human, Caco-2.

For `OC[C@@H]1[C@@H](O)[C@H](O)[C@@H](O)CN1CCCCCCOc1cc(F)ccc1F` [IHVR11029, (2R,3R,4R,5S)-1-(6-(2,5-difluorophenoxy)hexyl)-2-(hydroxymethyl)piperidine-3,4,5-triol], in series [1], the 50% effective concentration (EC50) was found to be 3.3 ± 2.7 µM and the 90% effect concentration (EC90) turned out to be 69 ± 37.7 µM. In [2], the EC50 was determined as 0.75 ± 0.06 µM and the EC90 came to 6.3 ± 3.5 µM. The “F PO” value in [3] is 92/ND/ND %. Further, the “AUC IV” value in series [3] (5 mg/kg) is recorded as 1990/9180/ND/ND μg*h/mL. Besides, in series [3] (25 mg/kg), the “AUC PO” value was 1990/9180/ND/ND μg*h/mL. For the same compound, in [4], the rats with diarrhea stood at 50% and the “adverse event at lower doses” value was “sign of GI stress, such as anogenital staining or soft stool”. Moreover, in series [5] (5 mg/kg), the C0 came to 1620 ng/mL and the clearance was 42.3 mL/min/kg. Also, the Tmax in series [5] (po, 25 mg/kg) amounted to 4.17 h. In [6], the CC50 was > 500 µM. Also, in [7], the CC50 is > 500 µM. Besides, the CC50 in series [8] is > 500 µM. Also, the half-inhibitory concentration (IC50) in series [9] was > 10 µM.
Turning to `CC(C)(C)C(=O)N(CCCCCCN1C[C@H](O)[C@@H](O)[C@H](O)[C@H]1CO)C1CCCCC1` [IHVR17028, N-cyclohexyl-N-(6-((2R,3R,4R,5S)-3,4,5-trihydroxy-2-(hydroxymethyl)piperidin-1-yl)hexyl)pivalamide], in series [1], the EC50 was 0.26 ± 0.08 µM and the concentration for an effect of 90% (EC90) was 26.7 ± 20.9 µM. Moreover, in [2], the EC50 was found to be 0.3 ± 0.03 µM and the concentration for an effect of 90% (EC90) is 1.7 ± 0.8 µM. Further, the “AUC IV” value in series [3] (5 mg/kg) was 1540/903/ND/ND μg*h/mL. The “AUC PO” value in series [3] (25 mg/kg) was 1540/903/ND/ND μg*h/mL. In series [4], the rats with diarrhea is listed as 100% and the “adverse event at lower doses” value was “sign of GI stress, such as anogenital staining or soft stool”. Moreover, in series [5] (5 mg/kg), the C0 came out at 1660 ng/mL, the Vd is 3 L/kg, the clearance was 55.7 mL/min/kg and the half-life is 0.88 h. In [5] (po, 25 mg/kg), the Cmax came to 180 ng/mL and the Tmax is 1.56 h. Moreover, the CC50 in series [6] is > 500 µM. The CC50 in series [7] was > 500 µM. Besides, the CC50 in series [8] is > 500 µM. In series [10] (pH 4, aqueous buffer), this compound showed a solubility of 299 µM (≈ 128 µg/mL). This compound gave a solubility in [10] (pH 7.4, aqueous buffer) of 311 µM (≈ 133 µg/mL). In addition, the IC50 in series [9] was > 10 µM. Further, in series [11], the efflux ratio worked out at 31.7.
Consider `CC(C)(C)NC(=O)N(CCCCCCN1C[C@H](O)[C@@H](O)[C@H](O)[C@H]1CO)C1CCCCC1` [IHVR19029, 3-(tert-butyl)-1-cyclohexyl-1-(6-((2R,3R,4R,5S)-3,4,5-trihydroxy-2-(hydroxymethyl)piperidin-1-yl)hexyl)urea], for which the EC50 turned out to be 0.74 ± 0.3 µM in series [1] and 1.25 ± 1.1 µM in series [2]. The EC90 in series [1] was determined as 52.5 ± 38.9 µM; in [2] it was 22.5 ± 10.6 µM. Moreover, the “AUC IM” value in [3] is recorded as 1383/945/1839/983 μg*h/mL. Besides, the “F PO” value in series [3] is recorded as 4.6/71/133%. In series [3] (ip, 5 mg/kg), the “AUC IP” value is recorded as 1383/945/1839/983 μg*h/mL. In series [3] (5 mg/kg), the “AUC IV” value is 1383/945/1839/983 μg*h/mL. In series [3] (75 mg/kg), the “AUC PO” value is 1383/945/1839/983 μg*h/mL. The “mortality or clinical signs” value (Balb/c mice, single dose IP or IM up to 200mg/kg, 9-day observation) is reported as “No mortality or clinical signs were observed”. Under “mouse, in vivo”, the “weight loss and GI alterations” value is “No significant weight loss and GI alterations”. Further, the Tmax in series [5] was 0.167 h; in series [5] (im, 5 mg/kg), 0.1 h; in series [5] (ip, 5 mg/kg), 0.17 h; in series [5] (po, 75 mg/kg) it was 2.1 h. For the same compound, the maximum concentration (Cmax) in series [5] (im, 5 mg/kg) was found to be 1230 ng/mL; in series [5] (ip, 5 mg/kg) it was 1330 ng/mL; in series [5] (po, 75 mg/kg) it was 260 ng/mL. Besides, the C0 in series [5] (5 mg/kg) was 1790 ng/mL. The Vd in series [5] (5 mg/kg) was 3 L/kg. This compound showed a clearance in series [5] (5 mg/kg) of 58.2 mL/min/kg. Further, in series [5] (5 mg/kg), the half-life was 1.2 h. Moreover, the CC50 in [6], in series [7] and in series [8] was > 500 µM throughout. The solubility turned out to be 309 µM (≈ 137 µg/mL) in [10] (pH 4, aqueous buffer) and 303 µM (≈ 134 µg/mL) in [10] (pH 7.4, aqueous buffer). Besides, in [9], the IC50 is > 10 µM. The efflux ratio in [11] is 34.2.
